According to PMC9322122, “Development of (4-Phenylamino)quinazoline Alkylthiourea Derivatives as Novel NF-κB Inhibitors” (Pharmaceuticals, 2022):
Read-outs that look alike come from different tables or passages of the source.

Tests used:
NF-κB [1] = test: NF-κB luciferase reporter assay; type: cell-based; details: Homo sapiens, NF-κB-luciferase-transfected HEK293 cells, TNFα 50 ng/mL; for inhibition at 10 µM: mean ± SEM, n = 3, read-out: NF-κB Luciferase Activity Inh %
Protocol: NF-κB Luciferase Reporter Vector was purchased from Signosis (Santa Clara, CA, USA) and transfected into HEK-293 cells using FuGENE HD (Promega, Fitchburg, MA, USA) following the manufacturer’s protocol. The transfected cells were incubated in serum-free DMEM for 16 h and then treated with DMSO or indicated compounds. After 3 h, cells were treated with or without 50 ng/mL of Recombinant Human TNFα Protein (R&D systems, Minneapolis, MN, USA) for another 3 h. The protein lysates were analyzed using Steady-Glo® Luciferase Assay System (Promega, Fitchburg, MA, USA) and TECAN Infinite 200 pro (Männedorf, Switzerland).

[2] = Cell viability (WST-1), HEK293; type: cell-based; details: human, HEK293 cells, mean ± SEM, n = 3
Protocol: (§1) Cells were incubated with the WST-1 reagent (Thermo Fisher Scientific, Waltham, MA, USA) at 37 °C for 2 h. The cell viability was determined by spectrophotometer at 450 nm.

[3] = Cell viability (WST-1), A549; type: cell-based; details: human, A549 cells, mean ± SEM, n = 3
Protocol: as §1

NF-κB [4] = tested on: NF-κB; parameters: method as in PMID 28291344; details: cell-based activity reporter assay; cited from earlier work
EGFR kinase = molecular target: EGFR kinase; parameters: method as in PMID 28291344; details: cell-free kinase assay at 100 µM ATP; cited from earlier work
TNFα production = TNFα production in LPS-activated dTHP-1 cells (ELISA); type: cell-based; details: Homo sapiens; for IC50: LPS-activated dTHP-1 cells, 24 h; for inhibition at 7.5 µM / inhibition at 15 µM: LPS 100 ng/mL for 24 h, dTHP-1 cells; for inhibition at 7.5 µM: read-out: TNFα Production Inh % (7.5 μM); for inhibition at 15 µM: read-out: TNFα Production Inh % (15 μM)
Protocol: (§2) The HEK-293 (ATCC Cat# CRL-1573, RRID:CVCL_0045) and human monocytic THP−1 cells (ATCC Cat# TIB-202, RRID:CVCL_0006) were, respectively, cultured in DMEM and RPMI 1640 media supplemented with 10% fetal bovine serum, 2 mM L-glutamine, and 1× Antibiotic-Antimycotic at 37 °C in a humidified incubator with 5% CO2. THP−1 cells were differentiated by 100 nM phorbol-12-myristate-13-acetate (PMA) for 4 h and then rested for 44 h as dTHP−1 cells.
(§3) The dTHP−1 cells were treated with indicated compounds for 3 h and then activated with or without 100 ng/mL lipopolysaccharide (LPS; E. coli 0111:B4) for another 24 h. The levels of human IL-6 and TNFα in supernatants were measured by DuoSet® ELISA Development System (R&D systems, Minneapolis, MN, USA) according to the manufacturer’s protocol.

IL-6 production = IL-6 production in LPS-activated dTHP-1 cells (ELISA); type: cell-based, human; details: for IC50 / inhibition at 7.5 µM / inhibition at 15 µM: Homo sapiens; for IC50: LPS-activated dTHP-1 cells, 24 h; for inhibition at 7.5 µM: read-out: IL-6 Production Inh % (7.5 μM); for inhibition at 15 µM: read-out: IL-6 Production Inh % (15 μM)
Protocol: as §2, §3

dTHP−1 cells = test: Cell viability of dTHP-1 cells with or without LPS; type: cell-based, human; details: in % (unit assumed); for Cell viability of dTHP-1 cells, 5 μM, LPS / Cell viability of dTHP-1 cells, 5 μM, without LPS: 5 μM (so in the source)
Protocol: as §2, §1, §3

phospho-NF-κB p65 (S536) = test: Western blot phospho-NF-κB p65 (S536) in dTHP-1 cells; type: cell-based, human; details: CAPE 10 µM; LPS-stimulated dTHP-1 cells
Protocol: Cells were lysed in the commercial RIPA Buffer (Thermo Fisher Scientific, Waltham, MA, USA) and then centrifuged at 14,000× g for 20 min. […] Antibodies used in this study were phospho-NF-κB p65 (S468; catalog no. 3039), phospho-NF-κB p65 (S536; catalog no. 3033), phospho-IKKα/β (catalog no. 2697), and IκB (catalog no. 9242) from Cell Signaling Technology (Beverly, MA, USA); GAPDH from ABclonal (catalog no. A10868; Woburn, MA, USA). The labeled signals were determined using an enhanced chemiluminescence system (UVP, Upland, CA, USA). The experiments were performed at least two times in triplicate, providing basically the same results.
The dTHP−1 cells were incubated with DMSO (0.1%), 19 (7.5 µM), or CAPE (10 µM) in medium for 3 h and then stimulated with or without LPS (0.1 µg/mL) for another 30 min. (A) The levels of phospho-NF-κB p65 (S536), phospho-IKKα/β, IκB, and GAPDH were determined by Western blot. The normalized (B) phospho-NF-κB p65 (S536), (C) phospho-IKKα/β, and (D) IκB levels were quantified. All data are expressed as mean ± SEM (n = 3); * p < 0.05 compared with the DMSO + LPS group.

Recombinant EGFR kinase = Recombinant EGFR kinase (Homo sapiens, UniProt P00533); test: Recombinant EGFR kinase activity; type: biochemical; details: read-out: Recombinant EGFR Kinase Activity (%inh at 150 nM)
[5] = 7.5 μM, LPS 100 ng/mL for 24 h, dTHP-1 cells
[6] = LPS 100 ng/mL for 24 h, dTHP-1 cells

Sequence of Recombinant EGFR kinase (P00533 25-1210): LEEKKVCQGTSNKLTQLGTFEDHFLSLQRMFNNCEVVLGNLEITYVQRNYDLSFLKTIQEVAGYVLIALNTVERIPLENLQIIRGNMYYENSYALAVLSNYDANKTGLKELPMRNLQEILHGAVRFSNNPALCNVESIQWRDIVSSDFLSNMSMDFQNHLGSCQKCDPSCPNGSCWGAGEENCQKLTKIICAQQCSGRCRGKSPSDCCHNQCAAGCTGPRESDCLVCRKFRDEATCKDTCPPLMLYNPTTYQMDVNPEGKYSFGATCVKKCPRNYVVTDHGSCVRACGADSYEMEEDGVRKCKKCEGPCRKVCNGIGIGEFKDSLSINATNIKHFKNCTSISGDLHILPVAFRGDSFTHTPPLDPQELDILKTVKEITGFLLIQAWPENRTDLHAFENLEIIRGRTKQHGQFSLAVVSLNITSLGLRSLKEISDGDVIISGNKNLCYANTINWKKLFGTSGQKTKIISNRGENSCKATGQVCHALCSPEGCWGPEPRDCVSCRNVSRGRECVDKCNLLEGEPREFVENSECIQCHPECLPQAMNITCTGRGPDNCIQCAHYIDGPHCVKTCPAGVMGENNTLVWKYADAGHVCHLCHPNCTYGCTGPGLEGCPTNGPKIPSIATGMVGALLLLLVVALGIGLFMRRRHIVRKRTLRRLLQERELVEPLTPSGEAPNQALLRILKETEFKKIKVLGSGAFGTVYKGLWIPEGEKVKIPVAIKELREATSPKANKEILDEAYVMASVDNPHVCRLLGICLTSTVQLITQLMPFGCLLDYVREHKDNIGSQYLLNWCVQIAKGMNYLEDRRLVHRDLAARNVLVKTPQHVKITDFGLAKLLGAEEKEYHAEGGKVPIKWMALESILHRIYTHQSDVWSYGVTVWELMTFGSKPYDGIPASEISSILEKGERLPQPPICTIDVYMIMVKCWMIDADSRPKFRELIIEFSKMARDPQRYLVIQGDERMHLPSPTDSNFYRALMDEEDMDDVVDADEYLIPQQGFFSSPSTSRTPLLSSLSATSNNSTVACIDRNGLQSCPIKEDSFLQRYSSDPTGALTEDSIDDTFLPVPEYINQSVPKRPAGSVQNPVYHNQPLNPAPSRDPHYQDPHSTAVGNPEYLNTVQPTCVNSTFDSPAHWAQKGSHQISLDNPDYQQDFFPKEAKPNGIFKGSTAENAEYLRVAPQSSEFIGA

SMILES | inhibition at 10 µM (NF-κB [1]) [%] | IC50 (NF-κB [1]) [nM] | viability at 10 µM [2] [%] | viability at 10 µM [3] [%] | IC50 (NF-κB [4]) [nM] | IC50 (TNFα production) [nM] | IC50 (IL-6 production) [nM] | inhibition at 0.15 µM (Recombinant EGFR kinase) [%] | inhibition at 7.5 µM (TNFα production) [%] | inhibition at 15 µM (TNFα production) [%] | inhibition at 7.5 µM (IL-6 production; [5]) [%] | inhibition at 15 µM (IL-6 production; [6]) [%] | Cell viability of dTHP-1 cells, 5 μM, LPS (dTHP−1 cells; LPS 100 ng/mL for 24 h) | Cell viability of dTHP-1 cells, 5 μM, without LPS (dTHP−1 cells; no LPS) | Cell viability of dTHP-1 cells, 7.5 μM, without LPS (dTHP−1 cells; no LPS) | melting point [°C] | other results
S=C(NCc1ccccc1)Nc1ccc2ncnc(Nc3cccc(Cl)c3)c2c1 [A, reference compound] | 94.6 ± 1.5 | 790 | 72.4 ± 3.9 | 81.7 ± 1.2 | 3700 |  |  |  |  |  |  |  |  |  |  |  | 
S=C(NCc1ccccc1)Nc1ccc2ncnc(Nc3ccc(Br)cc3)c2c1 [B] |  |  |  |  | 3800 |  |  |  |  |  |  |  |  |  |  |  | IC50 (EGFR kinase): > 150 nM
O=C(/C=C/c1ccc(O)c(O)c1)OCCc1ccccc1 [CAPE, caffeic acid phenethyl ester, reference compound] | 72.8 |  |  |  |  | 11400 ± 210 | 1100 ± 360 |  |  |  |  |  |  |  |  |  | Cell viability of dTHP-1 cells, 10 μM, LPS (dTHP−1 cells; CAPE 10 μM, LPS 100 ng/mL for 24 h): 52.2 ± 9.7; Cell viability of dTHP-1 cells, 10 μM, without LPS (dTHP−1 cells; CAPE 10 μM, no LPS): 97.8 ± 0.41; Phosphorylation of p65 at Ser536 (phospho-NF-κB p65 (S536)): slight reduction in the p65 phosphorylation
CC(C)(C)c1ccc(Nc2ncnc3ccc(NC(=S)NCc4ccccc4)cc23)cc1 [C] |  |  |  |  | 5500 |  |  |  |  |  |  |  |  |  |  |  | IC50 (EGFR kinase): > 150 nM
Fc1ccc(CNC(=S)Nc2ccc3ncnc(Nc4cccc(Cl)c4)c3c2)c(F)c1 [Compound 6, 1-(4-((3-chlorophenyl)amino)quinazolin-6-yl)-3-(2,4-difluorobenzyl)thiourea] | 78.4 ± 2.7 | 1600 | 85.5 ± 6.4 | 75.5 ± 2.9 |  | 4400 ± 850 | 360 ± 70 | 68 | 61.1 ± 5.8 | 76.6 ± 3.8 | 97.6 ± 0.6 | 98.2 ± 1.3 | 5.0 ± 0.35 | 43.6 ± 9.0 | 62.0 ± 14.5 | 178 to 180 | IL-6 Production Inh % (7.5 μM) (IL-6 production; [5]): almost complete blockage
COc1ccc(CNC(=S)Nc2ccc3ncnc(Nc4cccc(Cl)c4)c3c2)c(OC)c1 [Compound 7, 1-(4-((3-Chlorophenyl)amino)quinazolin-6-yl)-3-(2,4-dimethoxybenzyl)thiourea] | 27.1 ± 3.4 | > 10000 | 85.9 ± 2.5 | 99.5 ± 1.4 |  | 11900 ± 700 | 1200 ± 160 | 48 | 37 ± 4.9 | 50.3 ± 5.5 | 71 ± 3.4 | 84 ± 0.82 | 91.9 ± 4.2 | 96.8 ± 4.2 | 94.4 ± 0.61 | 204 to 206 | 
S=C(Nc1ccc2ncnc(Nc3cccc(Cl)c3)c2c1)NC1CC1 [Compound 17, 1-(4-((3-Chlorophenyl)amino)quinazolin-6-yl)-3-cyclopropylthiourea] | 47 ± 5.3 | > 10000 | 103 ± 8.4 | 102.6 ± 0.2 |  | 12300 ± 1000 | 720 ± 170 | 36.5 | 19 ± 8 | 62 ± 4.2 | 86 ± 2.3 | 95.8 ± 0.33 | 62.0 ± 3.4 | 84.5 ± 4.8 | 94.3 ± 1.9 | 219.1 to 220.2 | 
S=C(NCC1CC1)Nc1ccc2ncnc(Nc3cccc(Cl)c3)c2c1 [Compound 18, 1-(4-((3-Chlorophenyl)amino)quinazolin-6-yl)-3-(cyclopropylmethyl)thiourea] | 89.9 ± 1.5 | 2800 | 75.7 ± 3.8 | 79.1 ± 0.6 |  | 11500 ± 1700 | 1100 ± 360 | 59 | 31 ± 4.5 | 65.9 ± 7.9 | 78.9 ± 14.8 | 89.4 ± 7 | 11.2 ± 3.3 | 87.6 ± 2.5 | 82.7 ± 10.3 | 226.3 to 228 | Cell viability of dTHP-1 cells, 7.5 μM, LPS (dTHP−1 cells; LPS 100 ng/mL for 24 h): 34.9 ± 1.6
CC(C)(C)NC(=S)Nc1ccc2ncnc(Nc3cccc(Cl)c3)c2c1 [Compound 20, 1-(tert-Butyl)-3-(4-((3-chlorophenyl)amino)quinazolin-6-yl)thiourea] | 75.7 ± 3.1 | 2000 | 99.7 ± 8 | 98.1 ± 3.1 |  | 5100 ± 430 | 940 ± 110 | 1.5 | 57.4 ± 7.2 | 89.9 ± 0.88 | 91.8 ± 3.5 | 98.7 ± 1.2 | 12.5 ± 0.23 | 42.5 ± 10.6 | 78.0 ± 0.09 | 177.5 to 179.4 | Cell viability of dTHP-1 cells, 7.5 μM, LPS (dTHP−1 cells; LPS 100 ng/mL for 24 h): 32.5 ± 0.89
